Where a name gives a salt, the structure may show the parent alone.
These compounds were tested on Acinetobacter baumannii ATCC 17961 (assay: Antimicrobial susceptibility testing: 90% growth inhibitory concentration (IC90) determination). Settings: ATCC17961, Acinetobacter baumannii ATCC 17961, Iso-Sensitest broth, read-out: ATCC 17961 IC90.
Assay type: cell-based
Procedure, shortened: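 Broth microdilution in Iso-Sensitest medium, twofold series (e.g. 50 to 0.097 μM final), ~5×10^5 CFU/ml inoculum, 35±2 °C. OD600 read every 20 min over 16 h. IC90 derived from growth inhibition during logarithmic phase.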
Compound Cn1c(-c2cn(CC#N)nc2C(F)(F)F)cnc1C(=O)Nc1ccc(C(=O)N2CCN(C(=O)[C@H]3C[C@@H](N)C3)CC2)c(Cl)c1 [Example 73, N-[4-[4-(3-aminocyclobutanecarbonyl)piperazine-1-carbonyl]-3-chlorophenyl]-5-[1-(cyanomethyl)-3-(trifluoromethyl)pyrazol-4-yl]-1-methylimidazole-2-carboxamide;2,2,2-trifluoroacetic acid] has an IC90 of 2550 nM. For Cn1c(-c2cn(CCF)nc2C(F)(F)F)cnc1C(=O)Nc1ccc(C(=O)N2CCN(C(=O)[C@H]3C[C@@H](N)C3)CC2)c(Cl)c1 [Example 74, N-[4-[4-(3-aminocyclobutanecarbonyl)piperazine-1-carbonyl]-3-chlorophenyl]-5-[1-(2-fluoroethyl)-3-(trifluoromethyl)pyrazol-4-yl]-1-methylimidazole-2-carboxamide;hydrochloride], the IC90 was 347 nM. Compound Cn1c(-c2cn(Cc3cccnc3)nc2C(F)(F)F)cnc1C(=O)Nc1ccc(C(=O)N2CCN(C(=O)C3(O)CCCNC3)CC2)c(Cl)c1 (stereo not shown) [Example 75, N-[3-chloro-4-[4-(3-hydroxypiperidine-3-carbonyl)piperazine-1-carbonyl]phenyl]-1-methyl-5-[1-(pyridin-3-ylmethyl)-3-(trifluoromethyl)pyrazol-4-yl]imidazole-2-carboxamide;hydrochloride] has an IC90 of 542 nM. With C#CCn1cc(-c2cnc(C(=O)Nc3ccc(C(=O)N4CCN(C(=O)NCCNC)CC4)c(Cl)c3)n2C)c(C(F)(F)F)n1 [Example 76, 4-[2-chloro-4-[[1-methyl-5-[1-prop-2-ynyl-3-(trifluoromethyl)pyrazol-4-yl]imidazole-2-carbonyl]amino]benzoyl]-N-[2-(methylamino)ethyl]piperazine-1-carboxamide] the IC90 was 247 nM. For C#CCn1cc(-c2cnc(C(=O)Nc3ccc(C(=O)N4CCN(C(=O)N5CCNCC5)CC4)c(Cl)c3)n2C)c(C(F)(F)F)n1 [Example 77, N-[3-chloro-4-[4-(piperazine-1-carbonyl)piperazine-1-carbonyl]phenyl]-1-methyl-5-[1-prop-2-ynyl-3-(trifluoromethyl)pyrazol-4-yl]imidazole-2-carboxamide], the IC90 was 257 nM. Work on C#CCn1cc(-c2cnc(C(=O)Nc3ccc(C(=O)N4CCN(C(=O)N[C@H]5C[C@@H](N)C5)CC4)c(Cl)c3)n2C)c(C(F)(F)F)n1 [Example 78, N-(3-aminocyclobutyl)-4-[2-chloro-4-[[1-methyl-5-[1-prop-2-ynyl-3-(trifluoromethyl)pyrazol-4-yl]imidazole-2-carbonyl]amino]benzoyl]piperazine-1-carboxamide] yielded an IC90 of 109 nM. C#CCn1cc(-c2cnc(C(=O)Nc3ccc(C(=O)N4CCN(C(=O)N5CC[C@@H](N)C5)CC4)c(Cl)c3)n2C)c(C(F)(F)F)n1 [Example 79, N-[4-[4-[(3R)-3-aminopyrrolidine-1-carbonyl]piperazine-1-carbonyl]-3-chlorophenyl]-1-methyl-5-[1-prop-2-ynyl-3-(trifluoromethyl)pyrazol-4-yl]imidazole-2-carboxamide] gave an IC90 of 131 nM. C#CCn1cc(-c2cnc(C(=O)Nc3ccc(C(=O)N4CCN(C(=O)N5CC(C)(N)C5)CC4)c(Cl)c3)n2C)c(C(F)(F)F)n1 [Example 81, N-[4-[4-(3-amino-3-methylazetidine-1-carbonyl)piperazine-1-carbonyl]-3-chlorophenyl]-1-methyl-5-[1-prop-2-ynyl-3-(trifluoromethyl)pyrazol-4-yl]imidazole-2-carboxamide] was tested, and the IC90 was 227 nM. C#CCn1cc(-c2cnc(C(=O)Nc3ccc(C(=O)N4CCN(C(=O)N[C@H]5CCC[C@H]5N)CC4)c(Cl)c3)n2C)c(C(F)(F)F)n1 [Example 82, N-[(1S,2R)-2-aminocyclopentyl]-4-[2-chloro-4-[[1-methyl-5-[1-prop-2-ynyl-3-(trifluoromethyl)pyrazol-4-yl]imidazole-2-carbonyl]amino]benzoyl]piperazine-1-carboxamide] was tested, and the IC90 was 160 nM. In the case of C#CCn1cc(-c2cnc(C(=O)Nc3ccc(C(=O)N4CCN(C(=O)N[C@H]5CC[C@H](N)C5)CC4)c(Cl)c3)n2C)c(C(F)(F)F)n1 [Example 83, N-[(1S,3S)-3-aminocyclopentyl]-4-[2-chloro-4-[[1-methyl-5-[1-prop-2-ynyl-3-(trifluoromethyl)pyrazol-4-yl]imidazole-2-carbonyl]amino]benzoyl]piperazine-1-carboxamide], the IC90 is reported as 288 nM. Compound C#CCn1cc(-c2cnc(C(=O)Nc3ccc(C(=O)N4CCN(C(=O)N5CCC(N)CC5)CC4)c(Cl)c3)n2C)c(C(F)(F)F)n1 [Example 84, N-[4-[4-(4-aminopiperidine-1-carbonyl)piperazine-1-carbonyl]-3-chlorophenyl]-1-methyl-5-[1-prop-2-ynyl-3-(trifluoromethyl)pyrazol-4-yl]imidazole-2-carboxamide] has an IC90 of 191 nM. C#CCn1cc(-c2cnc(C(=O)Nc3ccc(C(=O)N4CCN(C(=O)N5CCC[C@H](N)C5)CC4)c(Cl)c3)n2C)c(C(F)(F)F)n1 [Example 85, N-[4-[4-[(3S)-3-aminopiperidine-1-carbonyl]piperazine-1-carbonyl]-3-chlorophenyl]-1-methyl-5-[1-prop-2-ynyl-3-(trifluoromethyl)pyrazol-4-yl]imidazole-2-carboxamide] showed an IC90 of 170 nM. C#CCn1cc(-c2cnc(C(=O)Nc3ccc(C(=O)N4CCN(C(=O)N5CC6CNC6C5)CC4)c(Cl)c3)n2C)c(C(F)(F)F)n1 (stereo not shown) [Example 86, N-[3-chloro-4-[4-(3,6-diazabicyclo[3.2.0]heptane-3-carbonyl)piperazine-1-carbonyl]phenyl]-1-methyl-5-[1-prop-2-ynyl-3-(trifluoromethyl)pyrazol-4-yl]imidazole-2-carboxamide] showed an IC90 of 203 nM. Work on C#CCn1cc(-c2cnc(C(=O)Nc3ccc(C(=O)N4CCN(C(=O)N[C@H]5[C@@H]6CNC[C@@H]65)CC4)c(Cl)c3)n2C)c(C(F)(F)F)n1 [Example 87, 4-[2-chloro-4-[[1-methyl-5-[1-prop-2-ynyl-3-(trifluoromethyl)pyrazol-4-yl]imidazole-2-carbonyl]amino]benzoyl]-N-[rac-(1R,5S)-3-azabicyclo[3.1.0]hexan-6-yl]piperazine-1-carboxamide] yielded an IC90 of 216 nM. Work on C#CCn1cc(-c2cnc(C(=O)Nc3ccc(C(=O)N4CCN(C(=O)N5C[C@@H]6C[C@H]5CN6)CC4)c(Cl)c3)n2C)c(C(F)(F)F)n1 [Example 88, N-[3-chloro-4-[4-[(1S,4S)-2,5-diazabicyclo[2.2.1]heptane-2-carbonyl]piperazine-1-carbonyl]phenyl]-1-methyl-5-[1-prop-2-ynyl-3-(trifluoromethyl)pyrazol-4-yl]imidazole-2-carboxamide] yielded an IC90 of 170 nM. Compound C#CCn1cc(-c2cnc(C(=O)Nc3ccc(C(=O)N4CCN(C(=O)NC5CC6(CNC6)C5)CC4)c(Cl)c3)n2C)c(C(F)(F)F)n1 [Example 89, N-(2-azaspiro[3.3]heptan-6-yl)-4-[2-chloro-4-[[1-methyl-5-[1-prop-2-ynyl-3-(trifluoromethyl)pyrazol-4-yl]imidazole-2-carbonyl]amino]benzoyl]piperazine-1-carboxamide] has an IC90 of 235 nM. Compound C#CCn1cc(-c2cnc(C(=O)Nc3ccc(C(=O)N4CCN(C(=O)N5C[C@@H]6CNC[C@H]6C5)CC4)c(Cl)c3)n2C)c(C(F)(F)F)n1 [Example 90, N-[4-[4-[(3aS,6aS)-2,3,3a,4,6,6a-hexahydro-1H-pyrrolo[3,4-c]pyrrole-5-carbonyl]piperazine-1-carbonyl]-3-chlorophenyl]-1-methyl-5-[1-prop-2-ynyl-3-(trifluoromethyl)pyrazol-4-yl]imidazole-2-carboxamide] has an IC90 of 218 nM. C#CCn1cc(-c2cnc(C(=O)Nc3ccc(C(=O)N4CCN(C(=O)N5CC6(CCN6)C5)CC4)c(Cl)c3)n2C)c(C(F)(F)F)n1 [Example 91, N-[3-chloro-4-[4-(1,6-diazaspiro[3.3]heptane-6-carbonyl)piperazine-1-carbonyl]phenyl]-1-methyl-5-[1-prop-2-ynyl-3-(trifluoromethyl)pyrazol-4-yl]imidazole-2-carboxamide] was tested, and the IC90 was 170 nM. Work on C#CCn1cc(-c2cnc(C(=O)Nc3ccc(C(=O)N4CCN(C(=O)[C@H]5[C@@H]6CNC[C@@H]65)CC4)c(Cl)c3)n2C)c(C(F)(F)F)n1 [Example 92, N-[3-chloro-4-[4-[rac-(1R,5S)-3-azabicyclo[3.1.0]hexane-6-carbonyl]piperazine-1-carbonyl]phenyl]-1-methyl-5-[1-prop-2-ynyl-3-(trifluoromethyl)pyrazol-4-yl]imidazole-2-carboxamide;hydrochloride] yielded an IC90 of 103 nM. Work on C#CCn1cc(-c2cnc(C(=O)Nc3ccc(C(=O)N[C@H]4C[C@@H](N)C4)c(Cl)c3)n2C)c(C(F)(F)F)n1 [Example 93, N-[4-[(3-aminocyclobutyl)carbamoyl]-3-chlorophenyl]-1-methyl-5-[1-prop-2-ynyl-3-(trifluoromethyl)pyrazol-4-yl]imidazole-2-carboxamide;hydrochloride] yielded an IC90 of 557 nM. For Cn1c(-c2cn(CC#N)nc2C(F)(F)F)cnc1C(=O)Nc1ccc(C(=O)N[C@H]2C[C@@H](N)C2)c(Cl)c1 [Example 94, N-[4-[(3-aminocyclobutyl)carbamoyl]-3-chlorophenyl]-5-[1-(cyanomethyl)-3-(trifluoromethyl)pyrazol-4-yl]-1-methylimidazole-2-carboxamide;2,2,2-trifluoroacetic acid], the IC90 was 176 nM. C[C@@H](N)C(=O)N[C@H]1C[C@@H](NC(=O)c2ccc(NC(=O)c3ncc(-c4cn(CC#N)nc4C(F)(F)F)n3C)cc2Cl)C1 [Example 95, N-[4-[[3-[[(2R)-2-aminopropanoyl]amino]cyclobutyl]carbamoyl]-3-chlorophenyl]-5-[1-(cyanomethyl)-3-(trifluoromethyl)pyrazol-4-yl]-1-methylimidazole-2-carboxamide;2,2,2-trifluoroacetic acid] showed an IC90 of 422 nM.

Source: patent publication US11390604B2 (Hoffmann-La Roche Inc., priority 2019, dated 2022)
